Measured values taken from PubChem BioAssay AID1963436 (Molecular Pharmacology Branch, DTP, NCI, 2024).

System: OVCAR-5 complex spheroid (HUVEC/MSC), viability % T/C
Test: Anticancer human tumor OVCAR-5 cell line growth inhibition [Asc];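 further: spheroids exposed to agents for 7 days before readout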;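 on viability, T/C: 100% = DMSO vehicle-treated wells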
Conditions: for IC50: curve of first compound; for viability, T/C: stronger effect = lower value
How it was run: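 Stromal components (HUVEC and hMSC) are co-assembled with the cancer cells into multicellular spheroids. Drugs are then added singly or paired, at concentrations falling by half-log increments from a clinically achievable maximum, capped at 10 microM without known Cmax.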

**Q.** Which IC50 (second compound 0.03 µM) does the source give for NC(=O)C(=Cn1cnc(-c2cc(C(F)(F)F)cc(C(F)(F)F)c2)n1)c1cncnc1 + CCN1C(C(=O)NC23CCC(C(=O)O)(CC2)CC3)C(c2cccc(Cl)c2F)C2(C(=O)Nc3cc(Cl)ccc32)C12CCCCC2 here?
**A.** Its IC50 is 0.299 µM.

**Q.** And the IC50 (second compound 0.0949 µM)?
**A.** Its IC50 is > 0.3 µM.

**Q.** And the IC50 (second compound 0.3 µM)?
**A.** The IC50 was 0.256 µM.

**Q.** What about the IC50 (second compound 0.949 µM) of the same compound?
**A.** Its IC50 is > 0.3 µM.

**Q.** And the IC50 (second compound 3 µM)?
**A.** The IC50 was 0.216 µM.

**Q.** What about the viability, T/C (second compound 0.03 µM, first compound 0.000949 µM) of the same compound?
**A.** Its viability, T/C is 95.8%.

**Q.** What about the viability, T/C (second compound 0.03 µM, first compound 0.003 µM) of the same compound?
**A.** Its viability, T/C is 85.5%.

**Q.** What about the viability, T/C (second compound 0.03 µM, first compound 0.00949 µM) of the same compound?
**A.** The viability, T/C was 82.1%.

**Q.** What about the viability, T/C (second compound 0.03 µM, first compound 0.03 µM) of the same compound?
**A.** Its viability, T/C is 76.5%.

**Q.** What about the viability, T/C (second compound 0.03 µM, first compound 0.0949 µM) of the same compound?
**A.** The viability, T/C was 71.2%.

**Q.** What about the viability, T/C (second compound 0.03 µM, first compound 0.3 µM) of the same compound?
**A.** The viability, T/C was 48.1%.

**Q.** And the viability, T/C (second compound 0.0949 µM, first compound 0.000949 µM)?
**A.** The viability, T/C was 93.9%.

**Q.** What about the viability, T/C (second compound 0.0949 µM, first compound 0.003 µM) of the same compound?
**A.** The viability, T/C was 99.9%.

**Q.** And the viability, T/C (second compound 0.0949 µM, first compound 0.00949 µM)?
**A.** Its viability, T/C is 81.9%.

**Q.** And the viability, T/C (second compound 0.0949 µM, first compound 0.03 µM)?
**A.** The viability, T/C was 67.3%.

**Q.** What about the viability, T/C (second compound 0.0949 µM, first compound 0.0949 µM) of the same compound?
**A.** The viability, T/C was 67.8%.

**Q.** And the viability, T/C (second compound 0.0949 µM, first compound 0.3 µM)?
**A.** Its viability, T/C is 48.2%.

**Q.** What about the viability, T/C (second compound 0.3 µM, first compound 0.000949 µM) of the same compound?
**A.** The viability, T/C was 79.1%.

**Q.** What about the viability, T/C (second compound 0.3 µM, first compound 0.003 µM) of the same compound?
**A.** The viability, T/C was 95.8%.

**Q.** What about the viability, T/C (second compound 0.3 µM, first compound 0.00949 µM) of the same compound?
**A.** Its viability, T/C is 86.9%.

**Q.** What about the viability, T/C (second compound 0.3 µM, first compound 0.03 µM) of the same compound?
**A.** The viability, T/C was 72%.

**Q.** And the viability, T/C (second compound 0.3 µM, first compound 0.0949 µM)?
**A.** The viability, T/C was 70.2%.

**Q.** And the viability, T/C (second compound 0.3 µM, first compound 0.3 µM)?
**A.** Its viability, T/C is 46.7%.

**Q.** And the viability, T/C (second compound 0.949 µM, first compound 0.000949 µM)?
**A.** Its viability, T/C is 103%.

**Q.** And the viability, T/C (second compound 0.949 µM, first compound 0.003 µM)?
**A.** Its viability, T/C is 108%.

**Q.** And the viability, T/C (second compound 0.949 µM, first compound 0.00949 µM)?
**A.** Its viability, T/C is 87.4%.

**Q.** What about the viability, T/C (second compound 0.949 µM, first compound 0.03 µM) of the same compound?
**A.** The viability, T/C was 81.4%.

**Q.** And the viability, T/C (second compound 0.949 µM, first compound 0.0949 µM)?
**A.** The viability, T/C was 66.2%.

**Q.** What about the viability, T/C (second compound 0.949 µM, first compound 0.3 µM) of the same compound?
**A.** Its viability, T/C is 53.3%.

**Q.** And the viability, T/C (second compound 3 µM, first compound 0.000949 µM)?
**A.** The viability, T/C was 98.5%.

**Q.** What about the viability, T/C (second compound 3 µM, first compound 0.003 µM) of the same compound?
**A.** The viability, T/C was 96.7%.

**Q.** What about the viability, T/C (second compound 3 µM, first compound 0.00949 µM) of the same compound?
**A.** Its viability, T/C is 80%.

**Q.** What about the viability, T/C (second compound 3 µM, first compound 0.03 µM) of the same compound?
**A.** The viability, T/C was 69.7%.

**Q.** What about the viability, T/C (second compound 3 µM, first compound 0.0949 µM) of the same compound?
**A.** Its viability, T/C is 61.8%.

**Q.** And the viability, T/C (second compound 3 µM, first compound 0.3 µM)?
**A.** Its viability, T/C is 45.4%.
